Measured values as given in ChEMBL document CHEMBL4706522, “Automated design and optimization of multitarget schizophrenia drug candidates by deep learning” (Eur J Med Chem, 2020).

Columns and labels:
[1] = system: Mus musculus; assay: Antipsychotic activity in ICR mouse assessed as reduction of PCP induced hyperactivity at 3 mg/kg, ig pretreated with compound for 30 mins followed by PCP challenge for 10 mins and measured after 60 mins; format: functional; settings: po, 1.667 h, time 100 min
[2] = target: 5-hydroxytryptamine receptor 2A (Homo sapiens, UniProt P28223); assay: Antagonist activity at 5-HT2A receptor (unknown origin) assessed as decrease in intracellular calcium flux preincubated with calcium followed by compound challenge and measured after 10 mins by FLIPR method; format: functional, cell-based
[3] = target: T1, 5-hydroxytryptamine receptor 1A (Homo sapiens, UniProt P08908); assay: Agonist activity at 5-HT1A receptor (unknown origin) preincubated for 60 mins followed by addition of Eu-cAMP and measured after 60 mins by plate reader method; format: functional
T1 sequence (P08908 whole entry): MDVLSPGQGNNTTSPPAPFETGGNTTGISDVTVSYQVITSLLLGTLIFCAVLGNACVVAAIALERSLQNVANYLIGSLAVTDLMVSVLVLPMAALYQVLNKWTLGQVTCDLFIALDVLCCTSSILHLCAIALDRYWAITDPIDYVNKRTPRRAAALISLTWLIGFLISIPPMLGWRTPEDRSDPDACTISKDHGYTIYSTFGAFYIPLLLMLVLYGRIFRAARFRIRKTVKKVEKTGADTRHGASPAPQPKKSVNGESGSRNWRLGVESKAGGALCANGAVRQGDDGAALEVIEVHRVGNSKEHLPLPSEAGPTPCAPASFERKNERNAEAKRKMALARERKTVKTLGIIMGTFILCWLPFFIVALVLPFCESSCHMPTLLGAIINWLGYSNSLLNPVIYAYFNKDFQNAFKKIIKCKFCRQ

[4] = target: D(2) dopamine receptor (Homo sapiens, UniProt P14416); assay: Antagonist activity at D2 receptor (unknown origin) preincubated for 60 mins followed by addition of Eu-cAMP and measured after 60 mins by plate reader method; format: functional
[5] = Toxicity in ICR mouse assessed as induction of catalepsy at 1 mg/kg, po; format: organism-based; settings: in vivo
[6] = Toxicity in ICR mouse assessed as induction of sedation by measuring spontaneous locomotor activity at 0.3 to 3 mg/kg, po measured for 30 mins following drug administration; format: organism-based; settings: in vivo, 0.5 h, dose 0.3-3 mg/kg

Sequence of D(2) dopamine receptor (P14416 whole entry): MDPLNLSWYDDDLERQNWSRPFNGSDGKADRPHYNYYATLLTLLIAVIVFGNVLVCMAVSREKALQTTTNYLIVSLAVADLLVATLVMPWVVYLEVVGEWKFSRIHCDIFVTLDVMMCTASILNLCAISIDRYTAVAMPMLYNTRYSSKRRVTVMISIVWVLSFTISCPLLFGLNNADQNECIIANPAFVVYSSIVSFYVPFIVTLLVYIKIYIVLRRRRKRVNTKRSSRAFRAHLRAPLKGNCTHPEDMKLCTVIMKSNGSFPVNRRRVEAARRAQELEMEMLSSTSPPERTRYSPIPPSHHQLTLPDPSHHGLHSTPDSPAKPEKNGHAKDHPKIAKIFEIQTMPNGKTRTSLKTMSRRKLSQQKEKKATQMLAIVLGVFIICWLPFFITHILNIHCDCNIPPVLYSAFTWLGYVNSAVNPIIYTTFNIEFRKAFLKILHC
Sequence of 5-hydroxytryptamine receptor 2A (P28223 whole entry): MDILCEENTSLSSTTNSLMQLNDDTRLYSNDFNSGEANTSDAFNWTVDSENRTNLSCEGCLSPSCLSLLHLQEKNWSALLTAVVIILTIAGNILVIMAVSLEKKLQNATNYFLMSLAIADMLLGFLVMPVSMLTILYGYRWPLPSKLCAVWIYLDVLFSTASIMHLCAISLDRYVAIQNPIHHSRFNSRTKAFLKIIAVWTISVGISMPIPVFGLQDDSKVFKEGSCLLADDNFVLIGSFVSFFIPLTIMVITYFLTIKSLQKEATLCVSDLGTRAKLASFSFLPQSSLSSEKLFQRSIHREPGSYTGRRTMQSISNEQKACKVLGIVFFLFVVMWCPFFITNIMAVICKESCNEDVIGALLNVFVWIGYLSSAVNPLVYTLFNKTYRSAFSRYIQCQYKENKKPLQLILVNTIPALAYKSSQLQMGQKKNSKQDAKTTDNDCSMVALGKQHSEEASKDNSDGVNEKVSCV

O=C1CCc2ccc(OCCCCN3CCN(c4cccc(Cl)c4Cl)CC3)cc2N1 [ARIPIPRAZOLE]
inhibition in vivo at 3 mg/kg [1]: 54%

O=C1COc2ccccc2N1CCCCN1CCN(c2cccc3sccc23)CC1
IC50 ([2]; read-out: IC50): 1.64 nM
EC50 ([3]; read-out: EC50): 0.51 nM
inhibition in vivo at 3 mg/kg [1]: 39%

Nc1ccc2c(c1)N(CCCCN1CCN(c3cccc4sccc34)CC1)S(=O)(=O)CC2
IC50 [4]: 67.6 nM
IC50 ([2]; read-out: pIC50 (converted)): 2.82 nM
EC50 ([3]; read-out: pEC50 (converted)): 0.794 nM
inhibition in vivo at 3 mg/kg [1]: 48%

COc1ccc2ncc(=O)n(CCCCN3CCN(c4cccc5sccc45)CC3)c2c1
IC50 ([2]; read-out: pIC50 (converted)): 20.9 nM
EC50 ([3]; read-out: pEC50 (converted)): 2.69 nM

O=C1NCC(=O)N(CCCCN2CCN(c3cccc4sccc34)CC2)c2cc(F)ccc21
IC50 [4]: 34.7 nM
IC50 ([2]; read-out: pIC50 (converted)): 24.5 nM
EC50 ([3]; read-out: pEC50 (converted)): 4.07 nM
inhibition in vivo at 3 mg/kg [1]: 43%

O=c1[nH]c(=O)n(CCCCN2CCN(c3cccc4sccc34)CC2)c2ccccc12
IC50 ([2]; read-out: pIC50 (converted)): 129 nM
EC50 ([3]; read-out: pEC50 (converted)): 3.39 nM
Activity [5]: Non-Toxic
Activity [6]: Non-Toxic

CN1CC(=O)N(CCCCN2CCN(c3cccc4sccc34)CC2)c2ccccc2C1=O
IC50 [4]: 123 nM
IC50 ([2]; read-out: pIC50 (converted)): 42.7 nM
EC50 ([3]; read-out: pEC50 (converted)): 11 nM
inhibition in vivo at 3 mg/kg [1]: 15%

O=S1(=O)CCc2ccc(O)cc2N1CCCCN1CCN(c2cccc3sccc23)CC1
IC50 [4]: 20 nM
IC50 ([2]; read-out: pIC50 (converted)): 18.6 nM
EC50 ([3]; read-out: pEC50 (converted)): 1.12 nM
inhibition in vivo at 3 mg/kg [1]: 13%
